“Also recorded” adds a separate entry of the source. Structures can show the parent of a compound that is named as a salt. Values belong to the compound of their own block, whether it stands above or below them.
Legend:
Format in all cases: physicochemical
[1] = Thermogravimetric analysis (TGA) weight loss / water content; settings: potassium salt; for hydration state: TGA
Experimental: (§1) The crystal forms were characterized and evaluated by measuring the heats of solution or solution calorimetry, solubility data, x-ray powder diffraction patterns (XRPD), differential scanning calorimetry (DSC) and thermogravimetric analysis (TGA). Heats of solution at 30° C. were obtained in the Setaram C-80 calvet calorimeter with sample size of 7-13 mg dissolved into 5 ml of 88% DMSO 12% water for a final concentration of 1.4-2.6 mg/ml. XRPD patterns were recorded using an automated Siemens X-ray diffractometer with copper tube K alpha radiation. DSC and TGA were conducted using a Perkin Elmer series 7 instrument with a scan rate of 10° C./min over the temperature range of 30°-300° C. Utilizing these techniques the thermodynamic stability of the polymorphs of 3-[2'-(N-benzoyl)sulfonamidobiphenyl-4-yl]methyl-5,7-dimethyl-2-ethyl-3H-imidazo[4,5-b]pyridine potassium salt was determined.
Step K: Preparation of 3-[2'-(N-Benzyl)sulfonamidobiphenyl-4-yl]methyl-5,7-dimethyl-2-ethyl-3H-imidazo[4,5-b]pyridine potassium salt--(Forms I, Id and W) [drawing 13] In a 72-L four-necked flask fitted with an overhead stirrer and a reflux condenser, 3-[2'-(N-benzyl)sulfonamidobiphenyl-4-yl]methyl-5,7-dimethyl-2-ethyl-3H-imidazo[4,5-b]pyridine 1 (5.04 kg, 9.6 mol), methanol (14.5 L) and water (2.5 L) are mixed. The slurry is warmed to 62° C. under a nitrogen atmosphere and 1.94M potassium hydroxide (4.96 L, 9.61 mol) is added to the slurry at 62° C. over 1.5 hours to provide a homogeneous solution. Isopropyl acetate (13.83 L) is then added at 65° C. and the mixture is warmed to 70° C. The homogeneous solution is filtered at 70° C. to remove any particulates that are present. The filtrate is diluted with isopropyl acetate (1.3 L), methanol (0.6 L) and water (0.1 L). […] The homogeneous mixture is cooled to 52° C. over 2 hours, whereupon potassium salt seed of form "I" (140 g) is added. This mixture becomes cloudy after 30 min. The mixture is aged for 10 hours at 52° C. The white slurry is cooled to 48° C. over 1 hour and stirred for 3 hours. Finally, the crystallization mixture is cooled to 0° C. at a rate of 1° C./12.5 min. and aged for 2 hours at 0° C. […] The solid is centrifuged at 0° C. and displacement-washed with a mixture of 2:2:1 cold (0° C.) isopropyl acetate/methanol/water (5.65 L) followed by isopropyl acetate (2.3 L). The solid is semi-dried to a TG of 10-15% by spin drying. The mother liquors contain 21 wt % of 3-[2'-(N-benzyl)sulfonamidobiphenyl-4-yl]methyl-5,7-dimethyl-2-ethyl-3H-imidazo[4,5-b]pyridine potassium salt. At this stage, the crystal form of the product is form "W". The product is powdered by passing through a screen (size=12). The solid is dried by passing dry nitrogen over the solid under vacuum at 22° C. for 5 hours to yield 4.55 kg of 3-[2'-(N-benzyl)sulfonamidobiphenyl-4-yl]methyl-5,7-dimethyl-2-ethyl-3H-imidazo[4,5-b]pyridine potassium salt as the form "I" with a purity of 99.7% (assay-HClO4 titration) and TG of 7-10%. Generally, the wet cake consists of residual water, methanol and isopropyl acetate. The K-salt is considered dry when <0.05% methanol and isopropyl acetate are detected by ^1 H NMR. The product is further powdered by passing the solid through a Quadro Comil (model 197s, screen size=1143 mm round impeller) to yield 4.5 kg. The product is dried to a TG of 4.6-5.5% by the passage of dry nitrogen over the solid under vacuum at 22° C. After 10 hours, 4.24 kg (78%) of the potassium salt as the form "I" is obtained with a TG of […] (99.7 wt % by titration). The water content can be monitored by TG analysis. The TG of the potassium salt of form "I" is 4.6-5.5%. The crystal form is monitored by X-ray analysis. When the potassium salt is over dried, the crystal form converts to form "Id" (TG<4.6%). […]

[2] = Heat of solution by solution calorimetry (Setaram C-80); settings: potassium salt
Experimental: The heat of solution of different crystal forms of 3-[2'-(N-benzoyl)sulfonamidobiphenyl-4-yl]methyl-5,7-dimethyl-2-ethyl-3H-imidazo[4,5-b]pyridine potassium salt were studied at 30° C. The heat of solution is a measure of the crystal lattice energy. […] Heats of solution had to be conducted in a solvent which dissolved the samples quickly without conversion to another polymorph. This really limited solvents which could be used. Dimethylsulfoxide was chosen for this reason. The heats of solution therefore have contributions from the lattice energy of the solid as well as heat of dilution of lattice water in dimethylsulfoxide. The calorimeter therefore produces a complex signal that has an exothermic contribution from the water and an additional contribution from the energy required to dissolve the crystal. […] Additional heats of solution were determined in a mixed solvent system of 88% dimethylsulfoxide and 12% water. This system was used to minimize the contribution of moisture to the heat of solution.
as §1, with “C.” for “C. Utilizing these techniques the thermodynamic stability of the polymorphs of 3-[2'-(N-benzoyl)sulfonamidobiphenyl-4-yl]methyl-5,7-dimethyl-2-ethyl-3H-imidazo[4,5-b]pyridine potassium salt was determined.”

[3] = Crystal form stability in water (XRPD of remaining solid); settings: room temperature, potassium salt
Source text: [13) S. R. Byre. "Solid State Chemistry of Drugs." Academic Press, New York, 1982.] […] Recrystallization of any of these lots from solvents like ethanol, methanol, isopropanol, acetone, etc. gave new crystal forms different from the original forms. […] Solubility in water at room temperature was one of these techniques. The equilibrium solubility in water, at room temperature for five polymorphs (Forms "B", "C", "D", "F", and "G") were the same (Table 1). When the remaining solids were filtered, air dried or vacuum dried overnight at room temperature the XRPD patterns had changed from the initial patterns and all were exactly the same. These experiments indicate that all of the crystal forms converted in water at room temperature to a new crystalline form designated […].
The remaining form "I" solid after equilibrium solubility studies in water was removed by filtration and vacuum dried overnight at room temperature.
After the discovery of form "I", form "D" could no longer be isolated in our laboratory. TGA studies indicate that form "I" of 3-[2'-(N-benzoyl)sulfonamidobiphenyl-4-yl]methyl-5,7-dimethyl-2-ethyl-3H-imidazo[4,5-b]pyridine potassium salt is a dihydrate (FIG. 4).

[4] = Crystal form conversion in acetonitrile, with or without water (XRPD); settings: overnight, room temperature, potassium salt; for crystal form after shaking in acetonitrile-water: acetonitrile with added water; for crystal form after stirring/shaking in acetonitrile: no added water
Source text: Since all of the crystal forms of 3-[2'-(N-benzoyl)sulfonamidobiphenyl-4-yl]methyl-5,7-dimethyl-2-ethyl-3H-imidazo[4,5-b]pyridine potassium salt were changed to a single crystal form "D", in water, the effect of a non-aqueous solvent was studied. 3-[2'-(N-benzoyl)sulfonamidobiphenyl-4-yl]methyl-5,7-dimethyl-2-ethyl-3H-imidazo[4,5-b]pyridine potassium salt, Forms "A", "B", "C", and "D" were stirred overnight at room temperature in acetonitrile. The remaining solids were filtered and then vacuum dried overnight at room temperature. The crystallinity of the solids was examined by XRPD spectroscopy.
All of the crystal forms were converted to a single crystal form ("D") in water, but in acetonitrile to two different crystal forms. […] To explore the role of water in the above experiments, 3-[2'-(N-benzoyl)sulfonamidobiphenyl-4-yl]methyl-5,7-dimethyl-2-ethyl-3H-imidazo[4,5-b]pyridine potassium salt, form "C" (an anhydrous crystal form) was this time suspended in acetonitrile with added water (water was 10% of the solid weight). As a control experiment Form "C" was also suspended in acetonitrile with no added water. The samples were shaken overnight at room temperature. The remaining solids were filtered and vacuum dried overnight at room temperature.

[5] = Equilibrium solubility in water at room temperature; settings: room temperature
[6] = Crystal form stability on heating

% Weight Loss (Δ 30-150° C. by TGA) ([1]; listed as G): 0%
hydration state ([1]; listed as G): anhydrous
ΔH solution DMSO at 30° C. ([2]; 30° C., listed as G): 8.51 ± 0.66 J/g
crystal form after suspension in water ([3]; listed as G): converted to form "D"
Structure (SMILES): CCc1nc2c(C)cc(C)nc2n1Cc1ccc(-c2ccccc2S(=O)(=O)NC(=O)c2ccccc2)cc1 [Form G, 3-[2'-(N-benzoyl)sulfonamidobiphenyl-4-yl]methyl-5,7-dimethyl-2-ethyl-3H-imidazo[4,5-b]pyridine potassium salt]

% Weight Loss (Δ 30-150° C. by TGA) ([1]; listed as J): 0.7%
Structure (SMILES): CCc1nc2c(C)cc(C)nc2n1Cc1ccc(-c2ccccc2S(=O)(=O)NC(=O)c2ccccc2)cc1 [Form J, 3-[2'-(N-benzoyl)sulfonamidobiphenyl-4-yl]methyl-5,7-dimethyl-2-ethyl-3H-imidazo[4,5-b]pyridine potassium salt]

crystal form after suspension in water ([3]; listed as F): converted to form "D"
Structure (SMILES): CCc1nc2c(C)cc(C)nc2n1Cc1ccc(-c2ccccc2S(=O)(=O)NC(=O)c2ccccc2)cc1 [Form F, 3-[2'-(N-benzoyl)sulfonamidobiphenyl-4-yl]methyl-5,7-dimethyl-2-ethyl-3H-imidazo[4,5-b]pyridine potassium salt]

The next lines start with the compound.

Structure (SMILES): CCc1nc2c(C)cc(C)nc2n1Cc1ccc(-c2ccccc2S(=O)(=O)NC(=O)c2ccccc2)cc1 [Form C, 3-[2'-(N-benzoyl)sulfonamidobiphenyl-4-yl]methyl-5,7-dimethyl-2-ethyl-3H-imidazo[4,5-b]pyridine potassium salt]
% Weight Loss (Δ 30-150° C. by TGA) ([1]; listed as C): 0.6%
hydration state ([1]; listed as C): anhydrous
ΔH solution DMSO at 30° C. ([2]; 30° C., listed as C): 29.75 ± 0.46 J/g
crystal form after shaking in acetonitrile-water ([4]; listed as C): converted to form "I"
crystal form after stirring/shaking in acetonitrile ([4]; listed as C): changed to another new form ("J")

Structure (SMILES): CCc1nc2c(C)cc(C)nc2n1Cc1ccc(-c2ccccc2S(=O)(=O)NC(=O)c2ccccc2)cc1 [Form B, 3-[2'-(N-benzoyl)sulfonamidobiphenyl-4-yl]methyl-5,7-dimethyl-2-ethyl-3H-imidazo[4,5-b]pyridine potassium salt]
equilibrium solubility in water, comparison of five polymorphs [5]: the same
% Weight Loss (Δ 30-150° C. by TGA) ([1]; listed as B): 0.5%
hydration state ([1]; listed as B): anhydrous
ΔH solution DMSO at 30° C. ([2]; 30° C., listed as B): 17.78 ± 0.52 J/g
crystal form after stirring/shaking in acetonitrile ([4]; listed as B): changed to another new form ("J")

Structure (SMILES): CCc1nc2c(C)cc(C)nc2n1Cc1ccc(-c2ccccc2S(=O)(=O)NC(=O)c2ccccc2)cc1 [Form A, 3-[2'-(N-benzoyl)sulfonamidobiphenyl-4-yl]methyl-5,7-dimethyl-2-ethyl-3H-imidazo[4,5-b]pyridine potassium salt]
% Weight Loss (Δ 30-150° C. by TGA) ([1]; listed as A): 3.4%
hydration state ([1]; listed as A): hydrated
ΔH solution DMSO at 30° C. ([2]; 30° C., listed as A): 4.92 ± 0.47 J/g
crystal form after stirring/shaking in acetonitrile ([4]; listed as A): converted to a new crystal form ("I"); also recorded: changed to form "I"

Structure (SMILES): CCc1nc2c(C)cc(C)nc2n1Cc1ccc(-c2ccccc2S(=O)(=O)NC(=O)c2ccccc2)cc1 [Form D, 3-[2'-(N-benzoyl)sulfonamidobiphenyl-4-yl]methyl-5,7-dimethyl-2-ethyl-3H-imidazo[4,5-b]pyridine potassium salt]
solubility ([5]; water, Table I): 10.4 ± 0.7 mg/mL
% Weight Loss (Δ 30-150° C. by TGA) ([1]; listed as D): 12-14%
hydration state ([1]; listed as D): hydrated
ΔH solution 88% DMSO/12% H2O ([2]; 88% DMSO/12% H2O, 30° C., listed as D): -16.33 ± 1.61 J/g
ΔH solution DMSO at 30° C. ([2]; 30° C., listed as D): -1.36 ± 0.42 J/g
thermodynamic stability ([2]; from heats of solution and equilibrium solubility, listed as D): metastable with respect to "I"
crystal form after suspension in water ([3]; listed as D): converted to form "I"
crystal form after heating at 40° C. for 30 minutes ([6]; 40° C., 30 minutes): did not change
crystal form after heating at 40° C. for 24 hours ([6]; 40° C., 24 hours): crystallinity was reduced and XRPD pattern changed to a new form called "F"
crystal form after heating up to 190° C. ([6]; up to 190° C., a few minutes): produced a new crystalline anhydrous form designated "G"
crystal form after shaking in acetonitrile-water ([4]; listed as D): the final crystal form was also "I"
crystal form after stirring/shaking in acetonitrile ([4]; listed as D): converted to a new crystal form ("I"); also recorded: changed to form "I"

— patent publication US5693812A, “Polymorphic forms of an angiotensin II antagonist” (priority 1996, dated 1997)
